Data published in patent publication US9023635B2, “Bacterial methods” (Imperial Innovations Limited, priority 2010, dated 2015).

Key:
[1] = test system: bacterial spore with prkC intracellular and transmembrane domain and the extracellular EPOR domain; experiment: Germination of bacterial spores expressing chimeric prkC-EPOR receptor; assay type: cell-based, Bacillus subtilis
[2] = test system: bacterial spores in the absence of the chimeric protein; experiment: Germination of bacterial spores in the absence of the prkC-EPOR chimeric protein; assay type: cell-based, Bacillus subtilis
[3] = test system: PrkC-SAV expressing spores with biotinylated azide and alkyne; settings: all click reaction components present; FIG. 26
Protocol: For all PrkC-SAV spore reactions, 100 nM of biotinylated ‘sensor’ was added to 100 μl reactions of spores at a concentration of OD600 ˜1. […] All reactions were carried out at room temperature. Controls for PrkC-SAV spore experiments omitted each reagent/parameter tested and the affect on germination was assessed. After addition of germinant, terbium was added to a final concentration of 5 μM and fluorescence visualized on a UV transilluminator (Biorad), at periodic time points. A DPA standard was imaged using known concentrations and correlated to fluorescent pixels.
PrkC-SAV expressing spores were incubated in the presence of biotinylated azide and alkyne groups with copper (FIG. 25). DPA release, i.e. germination, was measured by fluorescence in the presence of terbium as described in previous Examples.

[4] = test system: prkC-SAV spores with complementary biotinylated oligos; experiment: Germination of prkC-SAV spores with structure-switching anti-thrombin aptamers; assay type: cell-based; settings: FIG. 30
Source text: Hall et al (2009) describe a method for protein detection using structure switching aptamers. The well-known example of thrombin as a target, described in the Introduction by Hall et al, was utilised to assess the use of bacterial spores as an alternative readout to release of a quencher from a fluorophore, as illustrated in FIGS. 29-30.

[5] = test system: prkC-SAV spores with biotinylated aptamers; experiment: Germination of prkC-SAV spores with biotinylated anti-PDGF aptamers; assay type: cell-based; settings: FIG. 28
Source text: Presence of the target protein results in binding of the protein by the aptamers, dimerisation of the prkC proteins, and germination of the spores, which can be detected, for example, using methods described in previous Examples.

With erythropoietin [EPO] the “germination efficiency with increased concentration” value ([1]; FIG. 13, increased concentration of EPO) was “increase in germination efficiency”, the germination of spores ([1]; spores expressing prkC-EPOR chimera) was “stimulation of germination” and the germination of spores [2] was “does not stimulate the germination”.

In the case of `O=S(=O)([O-])[O-].[Cu+2]` [copper, copper (II) sulfate], the “germination (DPA release) versus controls omitting azide/alkyne or copper” value [3] is reported as “significant increase in germination”.

With thrombin the “target protein concentration of optimal detection” value [4] was 100 nm.

B1: PDGF-BB: platelet derived growth factor, in the BB homodimer form (protein, UniProt P01127 82-190, looked up)
Platelet-derived growth …: SLGSLTIAEPAMIAECKTRTEVFEISRRLIDRTNANFLVWPPCVEVQRCSGCCNNRNVQCRPTQVQLRPVQVRKIEIVRKKPIFKKATVTLEDHLACKCETVAAARPVT
modifications: BB homodimer
notes: platelet derived growth factor, in the BB homodimer form
With B1 the “target protein concentration of optimal detection” value [5] was 0.1 nM.
